Data reported in patent US20240132431A1, “METHOD FOR ALKYLATING ACIDIC FUNCTIONAL GROUP” (Chugai Seiyaku Kabushiki Kaisha, priority 2021, published 2024).
Read-outs that look alike come from different tables or passages of the source.

Assays:
[1] = biological target: T1, Bcl-2 protein (Recombinant Human Bcl-2 Protein) (Homo sapiens, UniProt P10415); assay: Binding evaluation of mixture library compounds to Bcl-2 using AS-MS (affinity selection mass spectrometry); details: for ASMS ratio (%) n = 1: replicate n = 1; for ASMS ratio (%) n = 1 / ASMS ratio (%) n = 2: ASMS Ratio(%)=(A−C)/B×100; for ASMS ratio (%) n = 2: replicate n = 2
T1 construct: purchased Novus NBP2-34889
How it was run: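 Affinity selection MS: Bcl-2 20 μM + 1200-cpd mixture, […]/cpd, Tris pH 7.4 buffer w/ Tween-20, DTT; 1 h 23° C dark; P-2 spin SEC; MeCN/MeOH extraction; RP LC/MS. ASMS Ratio(%) = (A−C)/B×100.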

human Bcl-2 protein = biological target: T2, human Bcl-2 protein (Homo sapiens, UniProt P10415); assay: Binding evaluation of compounds to Bcl-2 by surface plasmon resonance (SPR)
T2 construct: purchased Novus Biologicals
Experimental: In order to analyze the binding affinity of the compounds shown in [Table AK-O1] and synthesized in Example 8 to Bcl-2, the surface plasmon resonance method was used. Biacore T200 (GE Healthcare) was used as the apparatus, and HBS (10 mM HEPES-NaOH, 150 mM NaCl, pH 7.4) to which 1 mM DTT, 3 mM EDTA, 0.01% Tween 20, and 4% DMSO had been added was used as the running buffer. The human Bcl-2 protein (Novus Biologicals) was biotinylated using EZ-Link Sulfo-NHS-LC-LC-biotin (Thermofisher scientific) and immobilized on the surface of Sensor Chip SA (GE Healthcare). Thereafter, compound solutions of multiple concentrations and the running buffer (blank) were added to the Bcl-2 immobilized surface to obtain the binding response of the compounds. The measurement was carried out at 15° C.

[2] = first value in parentheses, (A−C)/B×100, 1200-compound mixture, Bcl-2 20 μM
[3] = second value in parentheses, (A−C)/B×100, 1200-compound mixture, Bcl-2 20 μM
[4] = Biacore T200, biotinylated human Bcl-2 immobilized on Sensor Chip SA, 15° C., compounds found by AS-MS evaluation of synthesized library, read-out: Equilibrium dissociation constant KD
[5] = Biacore T200, biotinylated human Bcl-2 immobilized on Sensor Chip SA, 15° C., compounds found by AS-MS evaluation of synthesized library
[6] = AS-MS on the mixture of 1200 library compounds
[7] = AS-MS, mixture of 1200 compounds, Bcl-2
[8] = binding to Bcl-2, compounds evaluated before library synthesis, read-out: KD

T2 sequence (P10415 whole entry): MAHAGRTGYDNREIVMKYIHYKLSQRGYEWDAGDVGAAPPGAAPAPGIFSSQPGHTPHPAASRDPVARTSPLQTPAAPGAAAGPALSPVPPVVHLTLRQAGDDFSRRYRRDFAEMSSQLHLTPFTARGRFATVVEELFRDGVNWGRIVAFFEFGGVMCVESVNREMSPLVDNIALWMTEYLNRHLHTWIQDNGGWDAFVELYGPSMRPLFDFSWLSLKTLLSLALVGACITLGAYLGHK
T1 sequence (P10415 whole entry): as above

SMILES | ASMS ratio (%) n = 1 ([1]; AS-MS, mixture library, Bcl-2) | ASMS ratio (%) n = 2 ([1]; AS-MS, mixture library, Bcl-2) | ASMS ratio (%) [1, 2] | ASMS ratio (%) [1, 3] | Equilibrium dissociation constant KD (human Bcl-2 protein; [5]) | other results
CCOc1cncc(-c2ccc(CN3CCN(c4ccc(C(=O)NS(=O)(=O)c5ccc(NCCSc6ccccc6)c([N+](=O)[O-])c5)cc4)CC3)c(OC)c2)c1 [B2Q054-01, 4-[4-[[4-(5-ethoxypyridin-3-yl)-2-methoxyphenyl]methyl]piperazin-1-yl]-N-[3-nitro-4-(2-phenylsulfanylethylamino)phenyl]sulfonylbenzamide] | 44.1% | 65.0% | 44.1% | 65.0% | – | Kd (human Bcl-2 protein; [4]): 1270 nM
CCOc1cccc(-c2ccc(CN3CCN(c4ccc(C(=O)NCC56CC7CC(CC(C7)C5)C6)nn4)CC3)c(CC)c2)c1 [B1A075-01, N-(1-adamantylmethyl)-6-[4-[[4-(3-ethoxyphenyl)-2-ethylphenyl]methyl]piperazin-1-yl]pyridazine-3-carboxamide] | – | – | 31.3% | 28.6% | Binding not observed | ASMS ratio (%) n = 1 [1, 7]: 31.3%; ASMS ratio (%) n = 2 [1, 7]: 28.6%
CCOc1cncc(-c2ccccc2CN2CCN(c3ccc(C(=O)NS(=O)(=O)c4ccc(NCCSc5ccccc5)c([N+](=O)[O-])c4)cc3)CC2)c1 [B2Q046-01, 4-[4-[[2-(5-ethoxypyridin-3-yl)phenyl]methyl]piperazin-1-yl]-N-[3-nitro-4-(2-phenylsulfanylethylamino)phenyl]sulfonylbenzamide] | 20.3% | 20.5% | 20.3% | 20.5% | – | Kd (human Bcl-2 protein; [8]): 8100 nM
CCOc1cccc(-c2ccccc2CN2CCN(c3ccc(C(=O)NS(=O)(=O)c4ccc(NCCSc5ccccc5)c(C(F)(F)F)c4)cc3)CC2)c1 [B2R045-01, 4-[4-[[2-(3-ethoxyphenyl)phenyl]methyl]piperazin-1-yl]-N-[4-(2-phenylsulfanylethylamino)-3-(trifluoromethyl)phenyl]sulfonylbenzamide] | – | – | – | – | – | ASMS ratio (%) ([1]; n = 1): 4.8%; ASMS ratio (%) ([1]; n = 2): −3.4%; Equilibrium dissociation constant KD (human Bcl-2 protein; Biacore T200, 15° C., compounds synthesized before performing library synthesis): Bound; Kd (human Bcl-2 protein; [8]): > 20000 nM
CCOc1cncc(-c2ccc(CN3CCN(c4ccc(C(=O)NS(=O)(=O)c5ccc(NCCSc6ccccc6)c([N+](=O)[O-])c5)cc4)CC3)cc2C)c1 [B2Q048-01, 4-[4-[[4-(5-ethoxypyridin-3-yl)-3-methylphenyl]methyl]piperazin-1-yl]-N-[3-nitro-4-(2-phenylsulfanylethylamino)phenyl]sulfonylbenzamide] | 61.6% | 90.8% | 61.6% | 90.8% | – | Kd (human Bcl-2 protein; [4]): 480 nM; equilibrium dissociation constant KD compared to compound B2Q045-01 (human Bcl-2 protein; binding to Bcl-2): smaller equilibrium dissociation constants KD
CCOc1cccc(-c2ccc(CN3CCN(c4ccc(C(=O)NS(=O)(=O)c5ccc(NCCSc6ccccc6)c([N+](=O)[O-])c5)cc4)CC3)c(OC)c2)c1 [B2Q053-01, 4-[4-[[4-(3-ethoxyphenyl)-2-methoxyphenyl]methyl]piperazin-1-yl]-N-[3-nitro-4-(2-phenylsulfanylethylamino)phenyl]sulfonylbenzamide] | 22.4% | 15.5% | 22.4% | 15.5% | Binding not observed | –
CCOc1cccc(-c2ccc(CN3CCN(c4ccc(C(=O)N(C)CC56CC7CC(CC(C7)C5)C6)nn4)CC3)c3ccccc23)c1 [B3A091-01, N-(1-Adamantylmethyl)-6-[4-[[4-(3-ethoxyphenyl)naphthalen-1-yl]methyl]piperazin-1-yl]-N-methylpyridazine-3-carboxamide] | – | – | – | – | – | ASMS ratio (%) n = 1 [1, 6]: −1.0%; ASMS ratio (%) n = 2 [1, 6]: −16.5%
CCOc1cncc(C#Cc2cncc(C(=O)N3CCN(c4ccc(C(=O)N(CC)CC)cc4)CC3)c2)c1 [B4J032-01, 4-[4-[5-[2-(5-Ethoxypyridin-3-yl)ethynyl]pyridine-3-carbonyl]piperazin-1-yl]-N,N-diethylbenzamide] | – | – | – | – | – | ASMS ratio (%) n = 1 [1, 6]: −7.2%; ASMS ratio (%) n = 2 [1, 6]: 1.5%
CCOc1cncc(C#Cc2ccccc2C(=O)N2CCN(c3ccc(C(=O)NS(C)(=O)=O)cc3)CC2)c1 [B2I030-01, 4-[4-[2-[2-(5-Ethoxypyridin-3-yl)ethynyl]benzoyl]piperazin-1-yl]-N-methylsulfonylbenzamide] | 0.0% | 0.0% | – | – | – | –
CCOc1cncc(-c2ccc(CN3CCN(c4ccc(C(=O)NS(=O)(=O)CCC(F)(F)F)nn4)CC3)c(CC)c2)c1 [B2N076-01, 6-[4-[[4-(5-Ethoxypyridin-3-yl)-2-ethylphenyl]methyl]piperazin-1-yl]-N-(3,3,3-trifluoropropylsulfonyl)pyridazine-3-carboxamide] | – | – | – | – | – | ASMS ratio (%) ([1]; n = 1): 0.0%; ASMS ratio (%) ([1]; n = 2): 0.0%
CCOc1cccc(-c2ccc(C(C)N3CCN(c4ccc(C(=O)NCC56CC7CC(CC(C7)C5)C6)cc4)CC3)c(F)c2)c1 (stereo not shown) [B1A099-01, N-(1-Adamantylmethyl)-4-[4-[1-[4-(3-ethoxyphenyl)-2-fluorophenyl]ethyl]piperazin-1-yl]benzamide] | – | – | – | – | – | ASMS ratio (%) n = 1 [1, 7]: 0.9%; ASMS ratio (%) n = 2 [1, 7]: −0.9%

The next lines start with results.

ASMS ratio (%) n = 1 ([1]; AS-MS, mixture library, Bcl-2) | ASMS ratio (%) n = 2 ([1]; AS-MS, mixture library, Bcl-2) | ASMS ratio (%) [1, 2] | ASMS ratio (%) [1, 3] | Equilibrium dissociation constant KD (human Bcl-2 protein; [5]) | SMILES | other results
40.7% | 36.9% | 40.7% | 36.9% | – | CCOc1cncc(-c2ccc(CN3CCN(c4ccc(C(=O)NS(=O)(=O)c5ccc(NCCSc6ccccc6)c([N+](=O)[O-])c5)cc4)CC3)c3ccccc23)c1 [B2Q066-01, 4-[4-[[4-(5-ethoxypyridin-3-yl)naphthalen-1-yl]methyl]piperazin-1-yl]-N-[3-nitro-4-(2-phenylsulfanylethylamino)phenyl]sulfonylbenzamide] | Kd (human Bcl-2 protein; [4]): 950 nM
– | – | 22.4% | 25.4% | Binding not observed | CCOc1cncc(-c2ccc(CN3CCN(c4ccc(C(=O)NS(=O)(=O)c5ccc(NCCSc6ccccc6)c(C(F)(F)F)c5)nn4)CC3)cc2C)c1 [B2R074-01, 6-[4-[[4-(5-ethoxypyridin-3-yl)-3-methylphenyl]methyl]piperazin-1-yl]-N-[4-(2-phenylsulfanylethylamino)-3-(trifluoromethyl)phenyl]sulfonylpyridazine-3-carboxamide] | ASMS ratio (%) ([1]; n = 1): 22.4%; ASMS ratio (%) ([1]; n = 2): 25.4%
– | – | 31.3% | 28.6% | Binding not observed | CCOc1cccc(-c2ccc(CN3CCN(c4ccc(C(=O)N(C)CC56CC7CC(CC(C7)C5)C6)nn4)CC3)cc2C)c1 [B3A073-01, N-(1-adamantylmethyl)-6-[4-[[4-(3-ethoxyphenyl)-3-methylphenyl]methyl]piperazin-1-yl]-N-methylpyridazine-3-carboxamide] | ASMS ratio (%) n = 1 [1, 6]: 31.3%; ASMS ratio (%) n = 2 [1, 6]: 28.6%
142.5% | 326.4% | 142.5% | 326.4% | Binding not observed | CCOc1cccc(-c2ccc(C(C)N3CCN(c4ccc(C(=O)NS(=O)(=O)c5ccc(NCCSc6ccccc6)c([N+](=O)[O-])c5)cc4)CC3)cc2)c1 (stereo not shown) [B2Q097-01, 4-[4-[1-[4-(3-ethoxyphenyl)phenyl]ethyl]piperazin-1-yl]-N-[3-nitro-4-(2-phenylsulfanylethylamino)phenyl]sulfonylbenzamide] | –
61.6% | 90.8% | 61.6% | 90.8% | Binding not observed | CCOc1cncc(-c2ccc(C(C)N3CCN(c4ccc(C(=O)NS(=O)(=O)c5ccc(NCCSc6ccccc6)c([N+](=O)[O-])c5)cc4)CC3)cc2)c1 (stereo not shown) [B2Q098-01, 4-[4-[1-[4-(5-ethoxypyridin-3-yl)phenyl]ethyl]piperazin-1-yl]-N-[3-nitro-4-(2-phenylsulfanylethylamino)phenyl]sulfonylbenzamide] | –
8.6% | −1.6% | – | – | – | CCOc1cncc(-c2cc(CN3CCN(c4ccc(C(=O)NS(=O)(=O)c5ccc(NCCSc6ccccc6)c([N+](=O)[O-])c5)cc4)CC3)cc(OC(F)(F)F)c2)c1 [B2Q064-01] | –
